Results reported in patent US20250205268A1, “TREATMENT OF VIRUSES WITH ANTIVIRAL NUCLEOSIDES” (priority 2021, published 2025).
Where “and” joins values, the source holds several entries; their conditions need not be identical. Equal entries are not always repeated. Where two headings read alike, the source gives them in different places.

Assays:
Assay type in all cases: in vivo
[1] = test system: infectious SARS-CoV-2 virus
SARS-CoV-2 RNA = assay: Phase 2a trial: RT-PCR for SARS-CoV-2 RNA in nasopharyngeal swabs (Example 2)
SARS-CoV-2 = conditions: for WHO Clinical Progression Scale, participants in score category 0 / WHO Clinical Progression Scale, participants in score category 1-3 / WHO Clinical Progression Scale, participants in score category 4-5 / WHO Clinical Progression Scale, participants in score category 6-9 / WHO Clinical Progression Scale, participants in score category 10: final MITT; for WHO Clinical Progression Scale, odds ratio (95% CI): proportional odds model

## CC(C)C(=O)OC[C@H]1O[C@@H](n2ccc(NO)nc2=O)[C@H](O)[C@@H]1O [Compound A, {(2R,3S,4R,5R)-3,4-dihydroxy-5-[4-(hydroxyimino)-2-oxo-3,4-dihydropyrimidin-1 (2H)-yl]oxolan-2-yl}methyl 2-methylpropanoate]
[1]; 200 mg twice daily 5 days, Day 3
  Percentage of participants positive for infectious SARS-CoV-2 virus: (18.2) %
[1]; 200 mg twice daily 5 days, Day 5
  Percentage of participants positive for infectious SARS-CoV-2 virus: (4.5) %
[1]; 400 mg twice daily 5 days, Day 1
  Percentage of participants positive for infectious SARS-CoV-2 virus: (41.9) %
[1]; 400 mg twice daily 5 days, Day 3
  Percentage of participants positive for infectious SARS-CoV-2 virus: (11.6) %
[1]; 800 mg twice daily 5 days, Day 1
  Percentage of participants positive for infectious SARS-CoV-2 virus: (38.5) %
SARS-CoV-2 RNA; 200 mg, Day 3
  Change from baseline in SARS-CoV-2 viral load, least squares mean: −0.783 log10 copies/ml
  Difference in least squares mean viral load change vs placebo: 0.064 log10 copies/ml
SARS-CoV-2 RNA; 200 mg, Day 5
  Change from baseline in SARS-CoV-2 viral load, least squares mean: −1.471 log10 copies/ml
  Difference in least squares mean viral load change vs placebo: −0.150 log10 copies/ml
SARS-CoV-2 RNA; 200 mg, Day 7
  Change from baseline in SARS-CoV-2 viral load, least squares mean: −2.028 log10 copies/ml
  Difference in least squares mean viral load change vs placebo: −0.076 log10 copies/ml
SARS-CoV-2 RNA; 200 mg, Day 14
  Change from baseline in SARS-CoV-2 viral load, least squares mean: −2.884 log10 copies/ml
  Difference in least squares mean viral load change vs placebo: −0.019 log10 copies/ml
SARS-CoV-2 RNA; 400 mg, Day 3
  Change from baseline in SARS-CoV-2 viral load, least squares mean: −0.941 log10 copies/ml
  Difference in least squares mean viral load change vs placebo: −0.094 log10 copies/ml
SARS-CoV-2 RNA; 400 mg, Day 5
  Change from baseline in SARS-CoV-2 viral load, least squares mean: −1.754 log10 copies/ml
  Difference in least squares mean viral load change vs placebo: −0.434 log10 copies/ml
SARS-CoV-2 RNA; 400 mg, Day 7
  Change from baseline in SARS-CoV-2 viral load, least squares mean: −2.263 log10 copies/ml
  Difference in least squares mean viral load change vs placebo: −0.311 log10 copies/ml
SARS-CoV-2 RNA; 400 mg, Day 14
  Change from baseline in SARS-CoV-2 viral load, least squares mean: −2.840 log10 copies/ml
  Difference in least squares mean viral load change vs placebo: 0.026 log10 copies/ml
SARS-CoV-2 RNA; 800 mg twice daily 5 days
  Median time to response (SARS-CoV-2 viral RNA negativity): 14 days and 14.0 days
SARS-CoV-2 RNA; 800 mg, Day 3
  Change from baseline in SARS-CoV-2 viral load, least squares mean: −1.050 log10 copies/ml
  Difference in least squares mean viral load change vs placebo: −0.203 log10 copies/ml
SARS-CoV-2 RNA; 800 mg, Day 5
  Change from baseline in SARS-CoV-2 viral load, least squares mean: −1.867 log10 copies/ml
  Difference in least squares mean viral load change vs placebo: −0.547 log10 copies/ml
SARS-CoV-2 RNA; 800 mg, Day 7
  Change from baseline in SARS-CoV-2 viral load, least squares mean: −2.485 log10 copies/ml
  Difference in least squares mean viral load change vs placebo: −0.534 log10 copies/ml
SARS-CoV-2 RNA; 800 mg, Day 14
  Change from baseline in SARS-CoV-2 viral load, least squares mean: −3.040 log10 copies/ml
  Difference in least squares mean viral load change vs placebo: −0.175 log10 copies/ml
SARS-CoV-2 RNA; 800 mg, participants seronegative at baseline (sensitivity analysis)
  Median time to clearance of viral RNA: 14 days
SARS-CoV-2; Baseline
  WHO Clinical Progression Scale, participants in score category 0: (0.0) %
  WHO Clinical Progression Scale, participants in score category 1-3: (100.0) %
  WHO Clinical Progression Scale, participants in score category 4-5: (0.0) %
  WHO Clinical Progression Scale, participants in score category 6-9: (0.0) %
  WHO Clinical Progression Scale, participants in score category 10: (0.0) %
SARS-CoV-2; Day 3
  WHO Clinical Progression Scale, participants in score category 0: (0.3) %
  WHO Clinical Progression Scale, participants in score category 1-3: (97.7) %
  WHO Clinical Progression Scale, participants in score category 4-5: (1.6) %
  WHO Clinical Progression Scale, participants in score category 6-9: (0.4) %
  WHO Clinical Progression Scale, participants in score category 10: (0.0) %
  WHO Clinical Progression Scale, odds ratio (95% CI): 1.19 (0.62, 2.30)
SARS-CoV-2; Day 5
  WHO Clinical Progression Scale, participants in score category 0: (1.6) %
  WHO Clinical Progression Scale, participants in score category 1-3: (95.1) %
  WHO Clinical Progression Scale, participants in score category 4-5: (2.4) %
  WHO Clinical Progression Scale, participants in score category 6-9: (0.9) %
  WHO Clinical Progression Scale, participants in score category 10: (0.0) %
  WHO Clinical Progression Scale, odds ratio (95% CI): 1.52 (0.96, 2.39)
SARS-CoV-2; Day 10
  WHO Clinical Progression Scale, participants in score category 0: (5.9) %
  WHO Clinical Progression Scale, participants in score category 1-3: (89.0) %
  WHO Clinical Progression Scale, participants in score category 4-5: (4.0) %
  WHO Clinical Progression Scale, participants in score category 6-9: (1.0) %
  WHO Clinical Progression Scale, participants in score category 10: (0.0) %
  WHO Clinical Progression Scale, odds ratio (95% CI): 1.58 (1.14, 2.20)
SARS-CoV-2; Day 15
  WHO Clinical Progression Scale, participants in score category 0: (15.2) %
  WHO Clinical Progression Scale, participants in score category 1-3: (81.9) %
  WHO Clinical Progression Scale, participants in score category 4-5: (2.2) %
  WHO Clinical Progression Scale, participants in score category 6-9: (0.6) %
  WHO Clinical Progression Scale, participants in score category 10: (0.0) %
  WHO Clinical Progression Scale, odds ratio (95% CI): 1.36 (1.03, 1.78)
SARS-CoV-2; Day 29
  WHO Clinical Progression Scale, participants in score category 0: (48.4) %
  WHO Clinical Progression Scale, participants in score category 1-3: (50.2) %
  WHO Clinical Progression Scale, participants in score category 4-5: (0.9) %
  WHO Clinical Progression Scale, participants in score category 6-9: (0.3) %
  WHO Clinical Progression Scale, participants in score category 10: (0.2) %
  WHO Clinical Progression Scale, odds ratio (95% CI): 1.04 (0.84, 1.29)
